Tests used:
PI3K = experiment: Immunoblot of Akt phosphorylation at Ser473 (hallmark of PI3K activation) in cells exposed to cl-CD95L; type: cell-based, human; conditions: for effect on CD95-mediated PI3K activation (phosphorylation of Akt at serine 473): breast cancer / TNBC cells exposed to cl-CD95L; for effect on CD95-mediated activation of Aid: pre-treatment of mammary cancer cells, non-cytotoxic amounts
Protocol: (§1) Cells were lysed for 30 min at 4° C. in lysis buffer [25 mM HEPES (pH 7.4), 1% v/v Triton X-100, 150 mM NaCl, and 2 mM EGTA supplemented with a mix of protease inhibitors (Sigma-Aldrich)]. Protein concentration was determined by the bicinchoninic acid method (PIERCE, Rockford, Ill., USA) according to the manufacturer's protocol. Proteins were separated by SDS-PAGE and transferred to a nitrocellulose membrane (GE Healthcare, Buckinghamshire, England). […] The proteins were visualized with the enhanced chemiluminescence substrate kit (ECL, GE Healthcare).

[1] = tested on: TNBC breast cancer cell lines (Hs578T, MDA-MB-231 and MDA-MB-468); experiment: In vitro motility assay (Boyden chambers); type: cell-based, human; conditions: cells pre-treated with the agent (inhibitors at non-cytotoxic amounts), exposed to cl-CD95L
Protocol: Boyden chambers (Millipore, Molsheim, France) containing 8 μm pore membranes were cultured in 24-well plates. After hydration of the membranes, 10^5 cells were added to the top chamber in low serum (1%)-containing medium. […] Cells were cultured for 24 h at 37° C. in a 5% CO2 humidified incubator. To quantify invasion, cells were fixed with methanol and stained with Giemsa. Stained cells were then removed from the top side of the membrane using a cotton-tipped swab and five representative pictures for each insert were taken of the invading cells from the reverse side. For each experiment, cells were lysed and absorbance at 560 nm was measured.

c-yes = c-yes activation status (auto-phosphorylation at Tyrosine 426); type: cell-based, human; conditions: pre-treatment of mammary cancer cells, non-cytotoxic amounts
Protocol: as §1

NADPHox = experiment: Flow cytometry analysis of intracellular ROS (H2FDA); type: cell-based, human; conditions: pre-treatment with NADPHox inhibitor
Protocol: Cells were pre-incubated for 30 min at 37° C. with 3 μM of H2FDA resuspended in PBS. The cells were then pre-incubated for an additional 30 min with or without ROS inhibitors before stimulation with 100 ng/ml cl-CD95L for the indicated times. Cells were then washed and analyzed by FACScalibur (BD Bioscience).

CD95 (human) = CD95 (human) (UniProt P25445); experiment: cell-based or functional assay
EGFR = experiment: Ca2+ monitoring: EGF-induced Ca2+ response; type: cell-based, human; conditions: TNBC cells (MDA-MB-231) in presence of EGF
Protocol: For experiments on parent cell lines, breast cancer cells were loaded with Fura2-PE3-AM (1 μM) at room temperature for 30 min in Hank's Balanced Salt Solution (HBSS). […] To minimize UV light exposure, a 4×4 binning function was used. Fura2-AM was alternately excited at 340 and 380 nm, and the ratios of the resulting images (excitations at 340 and 380 nm and emission filter at 520 nm) were produced at constant intervals (10 seconds). […] Fratio reflects the intracellular Ca^2+ concentration changes. Each experiment was repeated 3 times, and for each experimental condition, the average of more than 20 single-cell traces was used.

[2] = tested on: CD95-mediated Ca2+ response; experiment: Ca2+ monitoring: CD95-mediated Ca2+ response; type: cell-based, human; conditions: TNBC cells exposed to cl-CD95L
Protocol: For experiments on parent cell lines, breast cancer cells were loaded with Fura2-PE3-AM (1 μM) at room temperature for 30 min in Hank's Balanced Salt Solution (HBSS). After washing with HBSS, the cells were incubated for 15 min in the absence of Fura2-AM to complete de-esterification of the dye. Cells were placed in the temperature controlled chamber (37° C.) of an inverted epifluorescence microscope (Olympus IX70) equipped with an ×40 UApo/340-1.15 W water-immersion objective (Olympus), and fluorescence micrograph images were captured at 510 nm and 12-bit resolution by a fast-scan camera (CoolSNAP fx Monochrome, Photometrics). To minimize UV light exposure, a 4×4 binning function was used. […]
For experiments on GFP-expressing cell lines, Fluo8-AM was used, instead of Fura2-PE3-AM for experiments with GFP-expressing cells (infected with shRNA-expressing lentivirus), because GFP fluorescence disturbs Ca^2+ measurement with Fura2-PE3. Efficiently transduced cells (GFP expressing cells) were located by their emission of fluorescence at 530±30 nm for a light excitation at 485±22 nm. Ca^2+ changes were evaluated by exciting Fluo8-AM-loaded cells at […]. The values of the emitted fluorescence (605±50 nm) for each cell (F) were normalized to the starting fluorescence (F0) and reported as F/F0 (relative Ca^2+[CYT]). […]

Nox-4 = target: T1, Nox-4 (human, UniProt Q9NPH5 1-578, limits assumed); experiment: co-immunoprecipitation of CD95 (MISC) from MDA-MB-231 cells stimulated with cl-CD95L
T1 sequence (looked up): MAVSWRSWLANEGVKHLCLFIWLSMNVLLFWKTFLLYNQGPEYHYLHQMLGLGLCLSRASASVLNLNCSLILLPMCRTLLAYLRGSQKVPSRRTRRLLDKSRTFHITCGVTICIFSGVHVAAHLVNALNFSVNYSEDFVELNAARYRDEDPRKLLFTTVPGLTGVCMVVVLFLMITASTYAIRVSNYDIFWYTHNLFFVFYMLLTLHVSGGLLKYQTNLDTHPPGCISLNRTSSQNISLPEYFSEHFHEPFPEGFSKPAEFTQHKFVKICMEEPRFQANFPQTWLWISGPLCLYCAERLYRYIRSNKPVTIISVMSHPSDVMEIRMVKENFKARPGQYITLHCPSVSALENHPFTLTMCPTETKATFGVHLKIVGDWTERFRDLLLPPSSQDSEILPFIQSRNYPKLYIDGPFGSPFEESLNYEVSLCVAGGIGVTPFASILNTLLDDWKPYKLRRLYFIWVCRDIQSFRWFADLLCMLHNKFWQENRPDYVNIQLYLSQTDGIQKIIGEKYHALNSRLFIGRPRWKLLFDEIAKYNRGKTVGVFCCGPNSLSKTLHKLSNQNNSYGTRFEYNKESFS
Protocol: (§2) The cells were then lysed, 1 μg of Apo1-3 was added to the cell lysate and CD95 was immunoprecipitated by the addition of protein A-sepharose beads (Sigma-Aldrich). […] After extensive washing, the immune complex was resolved by SDS-PAGE.

Nox-2 = target: T2, Nox-2 (human, UniProt P04839 2-570); experiment: as above
T2 sequence (looked up): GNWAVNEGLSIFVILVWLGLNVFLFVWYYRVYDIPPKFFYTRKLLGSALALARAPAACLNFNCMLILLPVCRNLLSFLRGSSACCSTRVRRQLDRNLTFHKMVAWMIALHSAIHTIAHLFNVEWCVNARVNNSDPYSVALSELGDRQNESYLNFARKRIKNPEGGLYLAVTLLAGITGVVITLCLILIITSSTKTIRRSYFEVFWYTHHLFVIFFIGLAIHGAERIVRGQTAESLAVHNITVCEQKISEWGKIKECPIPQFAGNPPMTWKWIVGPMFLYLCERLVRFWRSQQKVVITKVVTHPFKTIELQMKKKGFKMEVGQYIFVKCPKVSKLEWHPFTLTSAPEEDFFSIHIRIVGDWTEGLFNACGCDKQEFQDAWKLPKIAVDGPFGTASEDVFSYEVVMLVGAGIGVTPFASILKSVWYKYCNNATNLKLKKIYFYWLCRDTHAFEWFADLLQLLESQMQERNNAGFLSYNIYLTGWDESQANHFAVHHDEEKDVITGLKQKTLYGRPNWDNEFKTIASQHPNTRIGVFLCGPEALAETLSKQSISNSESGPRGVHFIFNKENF
Protocol: as §2

Nox-1 = target: T3, Nox-1 (human, UniProt Q9Y5S8 1-564, limits assumed); experiment: as above
T3 sequence (looked up): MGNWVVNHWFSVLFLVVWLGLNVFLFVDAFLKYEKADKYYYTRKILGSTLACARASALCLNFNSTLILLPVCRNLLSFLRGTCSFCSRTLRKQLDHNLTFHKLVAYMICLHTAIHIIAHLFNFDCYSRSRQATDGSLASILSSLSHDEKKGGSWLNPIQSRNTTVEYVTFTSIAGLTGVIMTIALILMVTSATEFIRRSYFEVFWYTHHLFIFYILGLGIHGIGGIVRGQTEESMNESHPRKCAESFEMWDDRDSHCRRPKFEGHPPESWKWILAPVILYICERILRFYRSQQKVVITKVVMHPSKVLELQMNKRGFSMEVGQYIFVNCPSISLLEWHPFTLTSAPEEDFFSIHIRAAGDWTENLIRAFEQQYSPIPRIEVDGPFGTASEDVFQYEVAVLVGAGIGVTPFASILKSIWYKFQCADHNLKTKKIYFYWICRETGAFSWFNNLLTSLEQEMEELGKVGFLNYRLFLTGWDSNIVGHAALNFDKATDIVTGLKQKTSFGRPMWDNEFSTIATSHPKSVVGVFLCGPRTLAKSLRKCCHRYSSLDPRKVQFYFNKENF
Protocol: as §2

Cc1nnsc1C(=O)Nc1ccc(-n2nc(C(F)(F)F)cc2C(F)(F)F)cc1 [BTP2]
effect on CD95-mediated PI3K activation (phosphorylation of Akt at serine 473) (PI3K): inhibited | effect on migration of TNBC cells exposed to cl-CD95L [1]: inhibited

CC(=O)OCOC(=O)CN(CC(=O)OCOC(C)=O)c1ccccc1OCCOc1ccccc1N(CC(=O)OCOC(C)=O)CC(=O)OCOC(C)=O [BAPTA-AM, 1,2-bis-(o-Aminophenoxy)ethane-N,N,N′,N′-tetraacetic Acid Tetra-(acetoxymethyl) Ester]
effect on CD95-mediated PI3K activation (phosphorylation of Akt at serine 473) (PI3K): inhibited | effect on migration of TNBC cells exposed to cl-CD95L [1]: inhibited

COc1cc(C(C)=O)ccc1O [apocynin]
effect on CD95-mediated activation of c-yes (c-yes): impaired | effect on CD95-mediated activation of Aid (PI3K): impaired | effect on migration of TNBC cells exposed to cl-CD95L [1]: inhibited cell migration | effect on cl-CD95L-induced increase in intracellular ROS (NADPHox): blocked

c1ccc2c(c1)[I+]c1ccccc1-2 [DPI, diphenyleneiodonium chloride]
effect on CD95-mediated activation of c-yes (c-yes): impaired | effect on CD95-mediated activation of Aid (PI3K): impaired | effect on migration of TNBC cells exposed to cl-CD95L [1]: inhibited cell migration | effect on cl-CD95L-induced increase in intracellular ROS (NADPHox): blocked

metalloprotease-cleaved CD95L (from UniProt P48023 130-281) (ligand)
cell migration (Boyden chamber) of TNBC cells (CD95 (human)): 100 pg/mL

C#Cc1cccc(Nc2ncnc3cc(OCCOC)c(OCCOC)cc23)c1 [erlotinib]
effect on EGF-induced Ca2+ response (EGFR): blocked | effect on EGF-induced Ca2+ response (EGFR; listed as Erlotinib): abolished | effect on CD95-mediated PI3K activation (phosphorylation of Akt at serine 473) (PI3K): prevented | effect on migration of TNBC cells exposed to cl-CD95L [1]: abolished | effect on CD95-mediated Ca2+ response [2]: neither treatment with erlotinib nor EGFR silencing altered | effect on CD95-mediated Ca2+ response ([2]; listed as Erlotinib): do not alter

B1: CD95 (receptor)
chain: QVTDINSKGLELRKTVTTVETQNLEGLHHDGQFCHKPCPPGERKARDCTVNGDEPDCVPCQEGKEYTDKAHFSSKCRRCRLCDEGHGLEVEINCTRTQNTKCRCKPNFFCNSTVCEHCDPCTKCEHGIIKECTLTSNTKCKEEGSRSNLGWLCLLLLPIPLIVWVKRKEVQKTCRKHRKENQGSHESPTLNPETVAINLSDVDLSKYITTIAGVMTLSQVKGFVRKNGVNEAKIDEIKNDNVQDTAEQKVQLLRNWHQLHGKKEAYDTLIKDLKKANLCTLAEKIQTIILKDITSDSENSNFRNEIQSLV
notes: also called Fas; FasR
binding result (Nox-4): no binding | binding result (Nox-2): no binding | binding result (Nox-1): no binding

From patent US20150377888A1, “Methods for Predicting and Preventing Metastasis in Triple Negative Breast Cancers” (INSERM (INSTITUT NATIONAL DE LA SANTÉ ET DE LA RECHERCHE …, priority 2013, published 2015)
